Values after ≈ are worked out from the molar mass of the structure shown. Active and inactive are the calls of the source. The calls are words filed in the database; no cut-off is given here.
Key:
Staphylococcus aureus [1] = test: Antibacterial activity against Staphylococcus aureus MTCC 7443 after 24 hrs by serial dilution method; assay type: functional; settings: for MIC: Staphylococcus aureus, MTCC 7443, 24 h
Escherichia coli [2] = test: Antibacterial activity against Escherichia coli MTCC 42 after 24 hrs by serial dilution method; assay type: functional; settings: for MIC: Escherichia coli, MTCC 42, 24 h
Pseudomonas aeruginosa [3] = test: Antibacterial activity against Pseudomonas aeruginosa MTCC 7952 after 24 hrs by serial dilution method; assay type: functional; settings: for MIC: Pseudomonas aeruginosa, MTCC 7952, 24 h
Staphylococcus aureus [4] = test: Antibacterial activity against Staphylococcus aureus MTCC 7443 after 24 hrs by serial dilution method relative to 11,12-Diphenyl-11a,12-dihydro-11H-indeno[2,1-c][1,5]benzothiazepine; assay type: functional
Escherichia coli [5] = test: Antibacterial activity against Escherichia coli MTCC 42 after 24 hrs by serial dilution method relative to 11,12-Diphenyl-11a,12-dihydro-11H-indeno[2,1-c][1,5]benzothiazepine; assay type: functional
Pseudomonas aeruginosa [6] = test: Antibacterial activity against Pseudomonas aeruginosa MTCC 7952 after 24 hrs by serial dilution method relative to 11,12-Diphenyl-11a,12-dihydro-11H-indeno[2,1-c][1,5]benzothiazepine; assay type: functional
Aspergillus fumigatus [7] = test: Antifungal activity against Aspergillus fumigatus MTCC 2550 after 72 hrs by serial dilution method; assay type: functional; settings: for MIC: Aspergillus fumigatus, MTCC 2550, 72 h
Candida albicans [8] = test: Antifungal activity against Candida albicans MTCC 183 after 72 hrs by serial dilution method; assay type: functional; settings: for MIC: Candida albicans, MTCC 183, 72 h
Aspergillus fumigatus [9] = test: Antifungal activity against Aspergillus fumigatus MTCC 2550 after 72 hrs by serial dilution method relative to 11,12-Diphenyl-11a,12-dihydro-11H-indeno[2,1-c][1,5]benzothiazepine; assay type: functional
Candida albicans [10] = test: Antifungal activity against Candida albicans MTCC 183 after 72 hrs by serial dilution method relative to 11,12-Diphenyl-11a,12-dihydro-11H-indeno[2,1-c][1,5]benzothiazepine; assay type: functional
[11] = Octanol-water partition coefficient, log P of the compound; assay type: physicochemical
Bacillus subtilis = test: Antibacterial activity against Bacillus subtilis MTCC 441 after 24 hrs by serial dilution method

| MIC (Staphylococcus aureus [1]) [µM] | MIC (Escherichia coli [2]) [µM] | MIC (Pseudomonas aeruginosa [3]) [µM] | MIC (Aspergillus fumigatus [7]) [µM] | MIC (Candida albicans [8]) [µM] | logP [11] | Compound | -logMIC (Staphylococcus aureus [1]) | -logMIC (Escherichia coli [2]) | -logMIC (Pseudomonas aeruginosa [3]) | Activity (Staphylococcus aureus [4]) [%] | Activity (Escherichia coli [5]) [%] | Activity (Pseudomonas aeruginosa [6]) [%] | -logMIC (Aspergillus fumigatus [7]) | -logMIC (Candida albicans [8]) | Activity (Aspergillus fumigatus [9]) [%] | Activity (Candida albicans [10]) [%] | Activity (Bacillus subtilis) |
| --- | --- | --- | --- | --- | --- | --- | --- | --- | --- | --- | --- | --- | --- | --- | --- | --- | --- |
| 28.5 (≈ 12.5 µg/mL) | 14.2 (≈ 6.22 µg/mL) | 57 (≈ 25 µg/mL) | 28.5 (≈ 12.5 µg/mL) | 28.5 (≈ 12.5 µg/mL) | 7.48 | Clc1ccc2c(c1)SC(c1ccccc1)C1C(=N2)c2ccccc2C1c1ccccc1 (centres undefined) | 1.55 | 1.85 | 1.24 | 53.95 | 88.53 | 7.91 | 1.55 | 1.55 | 76.99 | 53.95 | inactive |
| 52.9 (≈ 25 µg/mL) | 13.2 (≈ 6.24 µg/mL) | 106 (≈ 50 µg/mL) | 6.6 (≈ 3.12 µg/mL) | 13.2 (≈ 6.24 µg/mL) | 8 | Clc1ccc(C2Sc3cc(Cl)ccc3N=C3c4ccccc4C(c4ccccc4)C32)cc1 (centres undefined) | 1.28 | 1.88 | 0.98 | 14.53 | 89.34 | -70.92 | 2.18 | 1.88 | 94.67 | 78.67 | inactive |

From ChEMBL document CHEMBL2203136, “Synthesis, characterization, biological evaluation and QSAR studies of 11-p-substituted phenyl-12-phenyl-11a,12-dihydro-11H-indeno[2,1-c][1,5]benzothiazepines as potential antimicrobial agents” (Eur J Med Chem, 2012)
